Among the test systems are CAKI-1; DMS-114; EKVX; HCT-116; HCT-15; HOP-62; IGROV-1; M14; NCI-H226; NCI-H522; RPMI-8226; SK-MEL-28; SK-MEL-5; SK-OV-3; SN12C; SR; SW-620; TK-10; UACC-62.
What all share (experiment): NCI-60 cell line screen, 48 h

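Protocol summary: plate cells (96-well), add compound at 5 concentrations, incubate 48 h, interpolate endpoints linearly. GI50 marks 50% less growth.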 Active and inactive are the calls of the source. No stated cut-off is given here; in the data, active = GI50 up to about 1.1 µM and inactive = higher.

`O=C(Nc1ccc([N+](=O)[O-])cc1)C1C(=O)C(=O)N(c2ccc([N+](=O)[O-])cc2)C1=O` (stereo not drawn): the GI50 is 74.6 µM (inactive) with CAKI-1; 17.1 µM (inactive) with DMS-114; > 100 µM (inactive) in the test on EKVX; 80.2 µM (inactive) with HCT-116; 61.1 µM in the test with HCT-15; > 100 µM (inactive) in the test on HOP-62. The GI50 in the test with IGROV-1 was > 100 µM (inactive); in the test with M14 it was 16.2 µM (inactive); in the test with NCI-H226, > 100 µM (inactive); in the test with NCI-H522, 55.8 µM (inactive); in the test on RPMI-8226, 46.5 µM (inactive); in the test on SK-MEL-28, > 100 µM (inactive). For the same compound, the GI50 is 12 µM (inactive) in the test with SK-MEL-5; > 100 µM (inactive) in the test on SK-OV-3; > 100 µM (inactive) in the test on SN12C; 59 µM (inactive) in the test on SR; 17.6 µM (inactive) with SW-620; > 100 µM (inactive) in the test on TK-10. Further, in the test with UACC-62, the GI50 was 2.72 µM (inactive).

Take `CCOC(=O)c1cc2c(nc1N)-c1ncccc1CC2`: the GI50 in the test on CAKI-1 was > 100 µM (inactive); in the test on DMS-114, 8.95 µM (inactive); with EKVX, 43.8 µM (inactive); with HCT-116 it was 44.3 µM (inactive); with HCT-15 it was 32 µM; in the test with HOP-62, 83.8 µM (inactive). Besides, the GI50 in the test on IGROV-1 was 49.4 µM (inactive); with M14 it was > 100 µM (inactive); in the test with NCI-H226, 66.2 µM (inactive); in the test with NCI-H522 it was 33.4 µM (inactive); with RPMI-8226, 22.6 µM (inactive); in the test with SK-MEL-28 it was 36.6 µM (inactive). The GI50 was 38.9 µM (inactive) with SK-MEL-5; 45.1 µM (inactive) in the test with SK-OV-3; 94.4 µM (inactive) with SN12C; 18.7 µM (inactive) in the test on SR; 59.8 µM (inactive) in the test on SW-620; > 100 µM (inactive) in the test on TK-10. The GI50 in the test with UACC-62 was 58.1 µM (inactive).

Consider `O=C(c1cc2ccccc2o1)N(Cc1ccccc1)c1ccccc1`, for which the GI50 in the test on CAKI-1 was 19.5 µM (inactive); with DMS-114 it was 19.3 µM (inactive); in the test on EKVX, 27 µM (inactive); in the test with HCT-116, 16.9 µM (inactive); with HCT-15, 18 µM; with HOP-62, 30.5 µM (inactive). Further, the GI50 in the test on IGROV-1 is 35.5 µM (inactive); in the test on M14 it was 18.6 µM (inactive); with NCI-H226 it was 15.6 µM (inactive); in the test with NCI-H522, 16.4 µM (inactive); with RPMI-8226 it was 18.2 µM (inactive); with SK-MEL-28, 36.9 µM (inactive). For the same compound, the GI50 was 16.1 µM (inactive) in the test on SK-MEL-5; 33.2 µM (inactive) in the test on SK-OV-3; 18 µM (inactive) with SN12C; 26.9 µM (inactive) in the test on SR; 15.8 µM (inactive) in the test on SW-620; 33.6 µM (inactive) with TK-10. Besides, the GI50 in the test on UACC-62 was 14.4 µM (inactive).

`NC(=O)N/N=C(\Cc1nc2ccc(C(=O)c3ccccc3)cc2nc1O)C(=O)Nc1ccc(Br)cc1`: the GI50 in the test on CAKI-1 is > 100 µM (inactive); in the test with DMS-114, > 100 µM (inactive); with EKVX, > 100 µM (inactive); in the test with HCT-116 it was > 100 µM (inactive); in the test on HCT-15, greater than 100 µM; in the test with HOP-62, > 100 µM (inactive). Also, the GI50 in the test on IGROV-1 is > 100 µM (inactive); with M14, > 100 µM (inactive); in the test with NCI-H226, 86.3 µM (inactive); in the test on NCI-H522 it was > 100 µM (inactive); in the test on RPMI-8226, > 100 µM (inactive); in the test on SK-MEL-28, > 100 µM (inactive). Further, the GI50 in the test on SK-MEL-5, with SK-OV-3, in the test with SN12C, in the test with SR, in the test with SW-620 and in the test on TK-10 was > 100 µM (inactive) in each case. In the test with UACC-62, the GI50 is > 100 µM (inactive).

In the case of `COc1cccc(NC(=S)Nn2c(C)nc3ccccc3c2=O)c1`, the GI50 is > 100 µM (inactive) in the test with CAKI-1; > 100 µM (inactive) in the test with DMS-114; > 100 µM (inactive) with HCT-116; greater than 100 µM in the test on HCT-15; > 100 µM (inactive) in the test on HOP-62; > 100 µM (inactive) in the test with IGROV-1. Also, the GI50 is > 100 µM (inactive) with M14; 80.2 µM (inactive) in the test on NCI-H226; > 100 µM (inactive) with NCI-H522; > 100 µM (inactive) in the test with RPMI-8226; > 100 µM (inactive) with SK-MEL-28; > 100 µM (inactive) in the test on SK-MEL-5. For the same compound, the GI50 with SK-OV-3 was > 100 µM (inactive); in the test with SN12C it was > 100 µM (inactive); in the test with SR it was > 100 µM (inactive); in the test on SW-620, > 100 µM (inactive); in the test on TK-10 it was > 100 µM (inactive); with UACC-62, 71.6 µM (inactive).

On to `Cc1c(-c2coc(-c3ccccc3)n2)c(=O)n(-c2ccccc2)n1C`, for which the GI50 in the test on CAKI-1 is 0.184 µM (active); with DMS-114, 36.6 µM (inactive); in the test with HCT-116, > 100 µM (inactive); in the test on HCT-15 it was greater than 100 µM; in the test with HOP-62, > 100 µM (inactive); in the test with IGROV-1 it was > 100 µM (inactive). The GI50 in the test on M14 is > 100 µM (inactive); in the test on NCI-H226, 94.4 µM (inactive); with NCI-H522 it was 29.1 µM (inactive); in the test with RPMI-8226, 36.5 µM (inactive); in the test with SK-MEL-28 it was > 100 µM (inactive); in the test with SK-MEL-5, 25.2 µM (inactive). Besides, the GI50 in the test on SK-OV-3 was > 100 µM (inactive); in the test on SN12C, > 100 µM (inactive); in the test with SR, 45.5 µM (inactive); in the test on SW-620, 37.8 µM (inactive); in the test on TK-10 it was > 100 µM (inactive).

Turning to `CC(=O)CCCCCCCCCCCC[C@@H]1CC[C@H](C)[C@H](O)N1`, the GI50 in the test with CAKI-1 was > 100 µM (inactive); with DMS-114, > 100 µM (inactive); in the test with EKVX, > 100 µM (inactive); with HCT-116, > 100 µM (inactive); with HCT-15, greater than 100 µM; with HOP-62, > 100 µM (inactive). Moreover, the GI50 in the test on IGROV-1 was > 100 µM (inactive); in the test with M14 it was 53.5 µM (inactive); with NCI-H226 it was > 100 µM (inactive); in the test with NCI-H522, > 100 µM (inactive); in the test with RPMI-8226 it was > 100 µM (inactive); in the test with SK-MEL-28 it was > 100 µM (inactive). The GI50 is 46.9 µM (inactive) with SK-MEL-5; > 100 µM (inactive) in the test with SK-OV-3; 90.4 µM (inactive) with SR; > 100 µM (inactive) with SW-620; > 100 µM (inactive) in the test with TK-10; 97.7 µM (inactive) in the test on UACC-62.

As for `CN1CCCNCCN(CCc2ccccn2)CCCN(C)CC1`, the GI50 was > 100 µM (inactive) with CAKI-1; > 42.6 µM (inactive) in the test on DMS-114; > 91.4 µM (inactive) with EKVX; > 66.2 µM (inactive) in the test on HCT-116; greater than 43.5 µM in the test with HCT-15; > 100 µM (inactive) with HOP-62. The GI50 in the test on IGROV-1 is > 100 µM (inactive); with M14 it was > 95.7 µM (inactive); in the test with NCI-H226, > 100 µM (inactive); in the test with NCI-H522, > 100 µM (inactive); with RPMI-8226, > 52.8 µM (inactive); with SK-MEL-28 it was > 100 µM (inactive). Further, the GI50 in the test on SK-MEL-5 was > 100 µM (inactive); with SK-OV-3 it was > 100 µM (inactive); in the test with SN12C it was > 100 µM (inactive); with SR, 29.1 µM (inactive); with SW-620, > 33.8 µM (inactive); in the test on TK-10, > 100 µM (inactive). In addition, the GI50 in the test on UACC-62 is > 100 µM (inactive).
